Target: T1, Human liver GK1 (GST-GK) (Homo sapiens, UniProt P35557)
T1 construct: made in house; host or cells: E. coli
T1 sequence (P35557 1-466 isoform P35557-2): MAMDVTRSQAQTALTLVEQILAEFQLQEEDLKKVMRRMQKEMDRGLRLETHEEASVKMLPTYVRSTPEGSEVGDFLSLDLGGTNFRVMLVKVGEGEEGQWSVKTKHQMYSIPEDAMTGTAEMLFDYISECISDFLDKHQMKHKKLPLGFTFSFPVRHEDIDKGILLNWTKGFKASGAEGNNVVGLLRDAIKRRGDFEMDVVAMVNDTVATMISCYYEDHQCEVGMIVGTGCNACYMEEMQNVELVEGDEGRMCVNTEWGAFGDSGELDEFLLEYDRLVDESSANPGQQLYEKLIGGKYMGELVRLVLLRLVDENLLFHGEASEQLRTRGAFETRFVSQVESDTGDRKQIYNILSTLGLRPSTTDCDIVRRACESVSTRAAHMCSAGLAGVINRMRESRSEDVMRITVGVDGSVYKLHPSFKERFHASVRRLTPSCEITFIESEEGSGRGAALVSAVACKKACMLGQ
Test: In vitro glucokinase activity assay (G6PDH-coupled, NADH, OD 340 nm)
Type: biochemical
Details: 25° C., 5 mM D-glucose, 1 mM ATP, 10% DMSO, recombinant GST-GK
Experimental: Glucokinase Assay: Glucokinase (GK) was assayed by coupling the production of glucose-6-phosphate to the generation of NADH with glucose-6-phosphate dehydrogenase (G6PDH, 0.75-1 kunits/mg; Boehringer Mannheim, Indianapolis, Ind.) from Leuconostoc mesenteroides as the coupling enzyme (Scheme 2). Recombinant
Human liver GK1 was expressed in E. coli as a glutathione S-transferase fusion protein (GST-GK) [Liang et al, 1995] and was purified by chromatography over a glutathione-Sepharose 4B affinity column using the procedure provided by the manufacturer (Amersham Pharmacia Biotech, Piscataway, N.J.).
The assay was conducted at 25° C. in a flat bottom 96-well tissue culture plate from Costar (Cambridge, Mass.) with a final incubation volume of 120 μl. The incubation mixture contained: 25 mM Hepes buffer (pH, 7.1), 25 mM KCl, 5 mM D-glucose, 1 mM ATP, 1.8 mM NAD, 2 mM MgCl2, 1 μM sorbitol-6-phosphate, 1 mM dithiothreitol, test drug or 10% DMSO, 1.8 unit/ml G6PDH, and GK (see below). […]
After addition of enzyme, the increase in optical density (OD) at 340 nm was monitored over a 10 minute incubation period as a measure of GK activity. […] The GK activity in control wells was compared with the activity in wells containing test GK activators, and the concentration of activator that produced a 50% increase in the activity of GK, i.e., the SC1.5, was calculated.

SMILES	SC1.5 (concentration of activator that produced a 50% increase in the activity of GK)
O=C(Nc1nccs1)[C@@H](CC1CCCCC1)N1Cc2ccccc2C1=O [Example 9, (R)-3-cyclohexyl-2-(1-oxo-1,3-dihydro-isoindol-2-yl)-N-thiazol-2-yl-propionamide]	36 µM

Test system: C57BL/6J mice
Test: Glucokinase activator in vivo screen (blood glucose after oral dosing)
Details: oral gavage 50 mg/kg, blood glucose at 0, 1, 2, 4, 6 h, active = significant (p ≦0.05) decrease for two consecutive time points
Experimental: Glucokinase Activator in vivo Screen Protocol: C57BL/6J mice are orally dosed via gavage with Glucokinase (GK) activator at 50 mg/kg body weight following a two hour fasting period. Blood glucose determinations are made five times during the six hour post-dose study period.
Mice (n=6) are weighed and fasted for a two hour period prior to oral treatment. GK activators are formulated at 6.76 mg/ml in Gelucire vehicle (Ethanol:Gelucire44/14:PEG400q.s. 4:66:30 v/w/v. Mice are dosed orally with 7.5 μl formulation per gram of body weight to equal to a 50 mg/kg dose. Immediately prior to dosing, a pre dose (time zero) blood glucose reading is acquired by snipping off a small portion of the animals tail (˜1 mm) and collecting 15 μl blood into a heparinized capillary tube for analysis. Following GK activator administration, additional blood glucose reading are takenat 1, 2, 4 and 6 hours post dose from the same tail wound. Results are interpreted by comparing the mean blood glucose values of six vehicle treated mice with six GK activator treated mice over the six hour study duration. Compounds are considered active when they exibit a statistically significant (p ≦0.05) decrease in blood glucose compared to vehicle for two consecutive assay time points.

SMILES	glucokinase activator in vivo activity (decrease in blood glucose compared to vehicle)
O=C(Nc1nccs1)[C@H](CC1CCCCC1)N1Cc2c(F)cccc2C1=O [Example 23.1, (S)-3-Cyclohexyl-2-(4-fluoro-1-oxo-1,3-dihydro-isoindol-2-yl)-N-thiazol-2-yl-propionamide]	excellent glucokinase activator in vivo activity
O=C(Nc1cnccn1)[C@H](CC1CCCCC1)N1Cc2ccccc2C1=O [Example 15, (S)-3-Cyclohexyl-2-(1-oxo-1,3-dihydro-isoindol-2-yl)-N-pyrazin-2-yl-propionamide]	excellent glucokinase activator in vivo activity
O=C(Nc1ccncn1)[C@H](CC1CCCCC1)N1Cc2ccccc2C1=O [Example 14, 3-Cyclohexyl-2-(1-oxo-1,3-dihydro-isoindol-2-yl)-N-pyrimidin-4-yl-propionamide]	excellent glucokinase activator in vivo activity
Cc1ccc(NC(=O)[C@H](CC2CCCCC2)N2Cc3ccccc3C2=O)nc1 [Example 31, (S)-3-Cyclohexyl-2-(1-oxo-1,3-dihydro-isoindol-2-yl)-N-5-methyl-pyridin-2-yl-propionamide]	excellent glucokinase activator in vivo activity
O=C(Nc1ccccn1)[C@H](CC1CCCCC1)N1Cc2ccccc2C1=O [Example 26, (S)-3-Cyclohexyl-2-(1-oxo-1,3-dihydro-isoindol-2-yl)-N-pyridin-2-yl-propionamide]	excellent glucokinase activator in vivo activity
O=C(Nc1ncc(Cl)s1)C(CC1CCCC1)N1Cc2ccccc2C1=O (centres unmarked) [Example 18, N-(5-Chloro-thiazol-2-yl)-3-cyclopentyl-2-(1-oxo-1,3-dihydro-isoindol-2-yl)-propionamide]	excellent glucokinase activator in vivo activity
O=C(Nc1cnccn1)[C@H](CC1CCCCC1)N1Cc2c(F)cccc2C1=O [Example 25.1]	excellent glucokinase activator in vivo activity
O=C(Nc1ccc(Cl)cn1)[C@H](CC1CCCCC1)N1Cc2ccccc2C1=O [Example 33, (S)-3-Cyclohexyl-2-(1-oxo-1,3-dihydro-isoindol-2-yl)-N-5-chloro-pyridin-2-yl-propionamide]	excellent glucokinase activator in vivo activity
O=C(Nc1ccc(Br)cn1)[C@H](CC1CCCCC1)N1Cc2ccccc2C1=O [Example 22, (S)-N-(5-Bromo-pyridin-2-yl)-3-cyclohexyl-2-(1-oxo-1,3-dihydro-isoindol-2-yl)-propionamide]	excellent glucokinase activator in vivo activity
O=C(Nc1nccs1)[C@H](CC1CCCCC1)N1Cc2ccccc2C1=O [Example 1, (S)-3-cyclohexyl-2-(1-oxo-1,3-dihydro-isoindol-2-yl)-N-thiazol-2-yl-propionamide]	excellent glucokinase activator in vivo activity

Source: patent US6482951B2 (Hoffmann-La Roche Inc., priority 2000, dated 2002)
